Test results reported in the supplement of paper PMC10307832.

Experiments:
Assay in all cases: relative viability (nuclei count vs DMSO), 5 days (fraction); higher = more cells survive
[1] = compound: CN(C)C(=N)NC(=N)N [Metformin] + Cc1nc(NC(=O)N2CCC[C@H]2C(N)=O)sc1-c1ccnc(C(C)(C)C(F)(F)F)c1 [Alpelisib] (partner 2 µM)
Summary of the method: (§1)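 Relative viability is defined as nuclei in treated wells over nuclei in vehicle wells. Duplicate plates were run and medians reported. Lung cancer cell lines in 1536-well plates were dosed by pin tool one day after seeding, with one drug or with a fixed anchor-drug dose plus five library-drug doses (not always all listed) in √10 steps, and nuclei were counted after 5 days.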

[2] = compound: CN(C)C(=N)NC(=N)N [Metformin] + Cc1nc(Nc2ncc(C(=O)Nc3c(C)cccc3Cl)s2)cc(N2CCN(CCO)CC2)n1 [Dasatinib] (partner 0.075 µM)
Summary of the method: as §1

[3] = compound: N#CC1(c2ccc(NC(=O)c3cccnc3NCc3ccncc3)cc2)CCCC1 [Apatinib] + COc1cc2c(Oc3ccc(NC(=O)C4(C(=O)Nc5ccc(F)cc5)CC4)cc3F)ccnc2cc1OCCCN1CCOCC1 [Foretinib] (partner 0.25 µM)
Summary of the method: as §1

[4] = compound: N#CC1(c2ccc(NC(=O)c3cccnc3NCc3ccncc3)cc2)CCCC1 [Apatinib] + N=C(N)NC(=N)NCCc1ccccc1 [Phenformin] (partner 250 µM)
Summary of the method: as §1

| Cell Line | relative viability ([1]; first compound 10 µM) | relative viability ([1]; first compound 31.62 µM) | relative viability ([1]; first compound 100 µM) | relative viability ([1]; first compound 316.23 µM) | relative viability ([1]; first compound 1000 µM) | relative viability ([2]; first compound 10 µM) | relative viability ([2]; first compound 100 µM) | relative viability ([2]; first compound 316.23 µM) | relative viability ([2]; first compound 1000 µM) | relative viability ([3]; first compound 0.08 µM) | relative viability ([3]; first compound 0.253 µM) | relative viability ([3]; first compound 0.8 µM) | relative viability ([3]; first compound 2.53 µM) | relative viability ([3]; first compound 8 µM) | relative viability ([4]; first compound 0.08 µM) | relative viability ([4]; first compound 0.253 µM) | relative viability ([4]; first compound 0.8 µM) | relative viability ([4]; first compound 2.53 µM) | relative viability ([4]; first compound 8 µM) | relative viability ([2]; first compound 31.62 µM) |
| --- | --- | --- | --- | --- | --- | --- | --- | --- | --- | --- | --- | --- | --- | --- | --- | --- | --- | --- | --- | --- |
| NCI-H1793 | 1.17 | 1.03 | 0.953 | 0.761 | 0.919 | 0.38 | 0.42 | 0.342 | 0.515 | 0.761 | 0.585 | 0.507 | 0.601 | 0.475 | 0.352 | 0.318 | 0.327 | 0.224 | 0.189 |  |
| NCI-H1437 | 1.11 | 1.03 | 1.07 | 1.05 | 1.01 | 0.602 | 0.359 | 0.41 | 0.415 | 1.28 | 1.26 | 1.24 | 1.03 | 1.02 | 0.354 | 0.283 | 0.278 | 0.252 | 0.251 | 0.48 |
| SW 1573 | 0.853 | 0.82 | 0.795 | 0.8 | 0.797 | 0.589 | 0.708 | 0.425 | 0.551 | 0.981 | 1.07 | 0.963 | 0.854 | 0.821 | 0.485 | 0.426 | 0.376 | 0.397 | 0.387 | 0.833 |
| SW 900 |  |  |  |  |  | 0.844 | 0.73 | 0.825 | 0.766 | 1.06 | 0.921 | 0.822 | 0.584 | 0.605 | 0.714 | 0.606 | 0.54 | 0.362 | 0.425 | 0.989 |
| LCLC-103H | 1.05 | 1 | 1.14 | 1.03 | 1 | 0.598 | 0.579 | 0.514 | 0.588 | 0.785 | 0.957 | 0.681 | 0.805 | 0.573 | 0.363 | 0.31 | 0.316 | 0.297 | 0.308 | 0.579 |
| BEN | 1.16 | 1.47 | 1.43 | 1.03 | 1.24 | 0.421 | 0.34 | 0.281 | 0.414 | 0.477 | 0.548 | 0.668 | 0.558 | 0.726 | 0.26 | 0.255 | 0.25 | 0.232 | 0.25 | 0.409 |
| EKVX | 0.656 | 0.934 | 0.88 | 0.812 | 0.835 |  | 0.598 | 0.671 | 0.779 | 0.71 | 0.872 | 0.951 | 0.615 | 0.775 | 0.233 | 0.228 | 0.234 | 0.216 | 0.234 | 0.856 |
| NCI-H2347 | 0.771 | 0.968 | 1.09 | 0.961 | 1.01 | 0.336 |  | 0.307 | 0.354 | 0.657 | 0.912 | 0.856 |  | 0.766 | 0.476 | 0.307 | 0.443 | 0.206 | 0.465 | 0.369 |
| H3255 | 0.697 | 0.783 | 0.712 | 0.339 | 0.486 | 0.391 | 0.232 | 0.402 | 0.315 | 0.973 | 0.795 | 0.757 | 0.753 | 0.675 | 0.393 | 0.398 | 0.343 | 0.358 | 0.32 | 0.344 |
| HCC-44 | 0.782 | 0.825 | 0.931 | 0.711 | 0.813 |  |  |  |  |  |  |  |  |  | 0.153 | 0.17 | 0.309 | 0.22 | 0.203 |  |
| IA-LM |  | 1.11 | 0.906 | 0.882 | 0.88 |  |  |  |  | 1.33 | 1.13 | 1.09 | 0.703 | 0.38 |  |  |  |  |  |  |
| NCI-H1792 |  | 0.798 | 0.979 | 0.691 | 0.869 |  | 0.982 | 0.754 | 0.756 |  |  |  |  |  | 0.5 | 0.227 | 0.235 | 0.111 | 0.184 | 1.05 |
| NCI-H2342 |  |  |  |  |  | 0.315 | 0.326 | 0.285 | 0.356 | 1.01 | 1.05 | 1.02 | 0.983 | 0.936 | 0.526 | 0.588 | 0.585 | 0.569 | 0.577 | 0.291 |
| EBC-1 | 0.866 | 0.989 | 0.925 | 0.941 | 0.947 |  |  |  |  | 0.111 | 0.0844 | 0.0979 | 0.0995 | 0.1 |  |  |  |  |  |  |
| NCI-H1703 | 0.491 | 0.728 | 0.474 | 0.512 | 0.368 |  |  |  |  | 0.37 | 0.345 | 0.31 | 0.297 | 0.37 |  |  |  |  |  |  |
| NCI-H1623 |  |  |  |  |  | 0.376 | 0.511 | 0.627 | 0.478 | 0.912 | 0.826 | 0.844 | 0.802 | 0.777 | 0.601 | 0.624 | 0.636 | 0.511 | 0.616 | 0.518 |
| Calu-6 | 0.889 | 0.84 | 0.836 | 0.73 | 0.879 |  |  |  |  | 0.994 | 0.915 | 0.799 | 0.766 | 0.791 |  |  |  |  |  |  |
| NCI-H1299 | 0.991 | 0.998 | 1.05 | 0.994 | 0.933 |  |  |  |  | 1.14 | 1.13 | 1.09 | 1.09 | 0.941 |  |  |  |  |  |  |
| A549 | 0.766 | 0.879 | 0.739 | 0.672 | 0.611 |  |  |  |  | 0.945 | 0.933 | 1 | 0.887 | 0.855 | 0.181 | 0.219 | 0.144 | 0.125 | 0.0802 |  |
| NCI-H522 |  |  |  |  |  | 1.07 | 1.18 | 1.02 | 1.07 |  |  |  |  |  | 0.708 | 0.696 | 0.638 | 0.617 | 0.669 | 1.15 |
| NCI-H1650 |  |  |  |  |  | 0.443 | 0.366 | 0.301 | 0.369 |  | 1.07 | 0.959 | 0.923 | 0.81 |  | 0.503 | 0.35 | 0.35 | 0.318 | 0.456 |
